# Source: US20080045486A1, “OCULAR ADMINISTRATION OF TESTOSTERONE” (priority 2006, published 2008)
# Tests used:
# [1] = Safety and pharmacokinetics study of testosterone ophthalmic solutions for up to 14 days in postmenopausal women; assay type: in vivo, human; details: for equivalent absorbed daily dose: assuming production rate 0.125 mg/day; for median Cmax of serum testosterone concentration: each eye twice daily, day 13, healthy postmenopausal women
# Procedure: A clinical study entitled “A Single-Center, Double Masked, Parallel, Dose-Ranging, Vehicle Controlled Study Evaluating the Safety and Pharmacokinetics of Testosterone (0.03%, 0.1%, 0.3%, and 0.6%) Ophthalmic Solutions for up to 14 Days in Postmenopausal Women” was conducted to determine the effectiveness of the ocular administration of testosterone. This study was a randomized, single-center, double-masked, parallel-group study of five treatment groups, with each subject acting as their own baseline control for serum testosterone concentrations. Subjects received testosterone ophthalmic solution 0.03%, 0.1%, 0.3%, 0.6% or vehicle ophthalmic solution in each eye twice daily for 14 days. Each subject had blood withdrawn for the measurement of serum testosterone concentrations. On day 13, blood samples were taken prior to the morning dose (time 0), and at 5, 10, 20, 30, and 45 minutes, 1, 2, 4, 6, 8, and 12 hours post-dose. On day −1, blood samples were taken at the same time as day 13 to evaluate the baseline serum testosterone levels. On days −6, 7, 14, and 27, one blood sample was taken at the same time as day 13 predose draw to evaluate the trough serum testosterone levels (there were no dosing on days −6, −1, and 27). […] Serum testosterone concentrations were assayed using a validated double antibody radioimmunoassay method with a lower limit of quantitation (LLOQ) at 29 pg/mL or 2.9 ng/dL.
# [2] = 16-week dose-ranging study of testosterone ophthalmic solutions in patients with keratoconjunctivitis sicca, serum pharmacokinetics; assay type: in vivo, human; details: for increase of serum testosterone concentration over the endogenous baseline / concentration at 10 min: 10 minutes after dosing; for increase of serum testosterone concentration over the endogenous baseline: male patients; for concentration at 10 min: human, serum, other: ophthalmic solution, eye drop, one drop twice daily, female patients, baseline approximately 20 ng/dL
# Procedure: Another clinical study entitled “A Multi-Center, Parallel, Randomized, Double-Masked, Vehicle-Controlled, Dose-Ranging Study to Evaluate the Safety, Tolerability and Efficacy of Testosterone 0.01%, 0.1%, and 0.3% Ophthalmic Solutions Administered Twice Daily for 16 weeks in Patients with Keratoconjunctivitis Sicca (KCS)” was conducted to determine the effectiveness of the ocular administration of testosterone in both women and men. This study was a randomized, multi-center, double-masked, parallel-group study of three treatment groups and one vehicle group. Patients were randomized to either 0.01%, 0.1%, 0.3% testosterone or vehicle of 0.3% testosterone ophthalmic solution. In the treatment phase, patients were instructed to instill one drop of the randomly assigned masked treatment twice daily (in the morning upon waking and before bedtime) for 16 weeks. Data from 135 patients (100 females and 35 males) were included in the pharmacokinetic data analysis. A single blood sample (20 mL) was taken from each patient pre-dose and at 10 minutes post dose on day 0, weeks 1, 4, 8, 12, and 16 for the determination of serum testosterone, dihydrotestosterone, 3-alpha-androstanediol glucuronide and sex hormone binding globulin concentrations. Serum concentrations of testosterone and dihydrotestosterone were determined by a validated gas chromatography-mass spectrometry (GC-MS) method with a quantitation range for DHT of 0.1 to 100 ng/dL and for testosterone of 1.0 to 1000 ng/dL. Serum concentrations of 3-alpha-androstanediol-glucuronide were quantitated by a validated radioimmunoassay method with a range of quantitation from 0.800 to 100 ng/mL, and serum concentrations of sex hormone binding globulin were determined using a validated two-site immunoradiometric assay (IRMA) method with a range of quantitation of 5 to 320 nmol/L for a 1:100 diluted sample.
structure (smiles),measurement,setting,value
"C[C@]12CC[C@H]3[C@@H](CCC4=CC(=O)CC[C@@]43C)[C@@H]1CC[C@@H]2O [testosterone, (17β)-17-Hydroxyandrost-4-en-3-one]",equivalent absorbed daily dose,[1]; 0.03% formulation BID both eyes,0.024 mg
same,average increase of serum testosterone level,"[1]; 0.03% formulation, 50 μL BID to both eyes (0.06 mg/day)",3.8 ng/dL
same,median Cmax of serum testosterone concentration,[1]; 0.03% ophthalmic solution,93.5 ng/dL
same,equivalent absorbed daily dose,[1]; 0.1% formulation BID both eyes,0.094 mg
same,average increase of serum testosterone level,"[1]; 0.1% formulation, 50 μL BID to both eyes (0.2 mg/day)",15 ng/dL
same,median Cmax of serum testosterone concentration,[1]; 0.1% ophthalmic solution,193 ng/dL
same,equivalent absorbed daily dose,[1]; 0.3% formulation BID both eyes,0.15 mg
same,average increase of serum testosterone level,"[1]; 0.3% formulation, 50 μL BID to both eyes (0.6 mg/day)",24 ng/dL
same,median Cmax of serum testosterone concentration,[1]; 0.3% ophthalmic solution,237 ng/dL
same,equivalent absorbed daily dose,[1]; 0.6% formulation BID both eyes,0.31 mg
same,average increase of serum testosterone level,"[1]; 0.6% formulation, 50 μL BID to both eyes (1.2 mg/day)",49 ng/dL
same,median Cmax of serum testosterone concentration,[1]; 0.6% ophthalmic solution,457 ng/dL
same,time for serum testosterone concentration to return to the baseline level,[1]; after dosing of testosterone ophthalmic solution,12 h
same,fraction of the peak serum level gone,[1]; in 2 hours after ophthalmical dosing,about 90%
same,increase of serum testosterone concentration over the endogenous baseline,[2]; 0.1% solution,13%
same,increase of serum testosterone concentration over the endogenous baseline,[2]; 0.3% solution,36%
same,safety concern from serum pharmacokinetic data,"[2]; 4 month dosing period, 0.01%, 0.1% and 0.3% dose levels",did not indicate a safety concern
same,concentration at 10 min,[2]; 0.01% solution,0.35 ng/mL
same,concentration at 10 min,[2]; 0.1% solution,2 ng/mL
same,concentration at 10 min,[2]; 0.3% solution,3.5 ng/mL
